# Data reported in publication PMC7663772, “Optimizing the Profile of [^99mTc]Tc–NT(7–13) Tracers in Pancreatic Cancer Models by Means of Protease Inhibitors” (International Journal of Molecular Sciences, 2020).
# Tests used:
# [1] = tested on: AsPC-1 xenografts; details: mouse, in vivo; cited from earlier work
# [2] = tested on: WiDr cells; design: method as in PMID 32526874; details: 1 h incubation ref 39; cited from earlier work
# [3] = tested on: Capan-1 cells; test: NTS1R-specific cell uptake/internalization in Capan-1 cells; type: cell-based, human; details: 1 h incubation at 37 °C
# Description: (§1) The human pancreatic adenocarcinoma AsPC-1, PANC-1, MiaCapa-2, and Capan-1 cell lines were obtained from LGC Standards GmbH (Wesel, Germany). All culture reagents were purchased from Gibco BRL, Life Technologies (Grand Island, NY, USA) or from Biochrom KG Seromed (Berlin, Germany). Cells were grown in Roswell Park Memorial Institute-1640 Medium (RPMI-1640; AsPC-1 cells) or Dulbecco’s Modified Eagle’s Medium (DMEM; PANC-1, MiaCapa-2, and Capan-1 cells) with GlutaMAX-I, supplemented with 10% (v/v) fetal bovine serum (FBS), 100 U/mL penicillin, and 100 μg/mL streptomycin, and kept in a controlled humidified air containing 5% CO2 at 37 °C. […]
# (§2) For internalization assays, AsPC-1, PANC-1, MiaCapa-2, and Capan-1 cells were seeded in six-well plates (≈1 × 10^6 cells per well) the day before the experiment. […] Non-specific internalization was determined by a parallel triplicate series containing 1 μM NT. […] Sample radioactivity was measured on the gamma counter, and the percentage of specific internalized and membrane-bound fractions were calculated with Microsoft Excel (after subtracting the non-specific from the overall internalized and membrane-bound counts). Results represent the specific mean internalized ± SD of total added radioactivity per well from three experiments performed in triplicate. […]
# [4] = tested on: PANC-1 cells; test: NTS1R-specific cell uptake/internalization in PANC-1 cells; type: cell-based, human
# Description: as §1, §2
# [5] = tested on: AsPC-1 cells; test: NTS1R-specific cell uptake/internalization in AsPC-1 cells; type: cell-based, human; details: for specific cell uptake: AsPC-1 cells, 1 h incubation at 37 °C, NTS1R-specific (non-specific with 1 μM NT subtracted)
# Description: The human pancreatic adenocarcinoma AsPC-1, PANC-1, MiaCapa-2, and Capan-1 cell lines were obtained from LGC Standards GmbH (Wesel, Germany). All culture reagents were purchased from Gibco BRL, Life Technologies (Grand Island, NY, USA) or from Biochrom KG Seromed (Berlin, Germany). Cells were grown in Roswell Park Memorial Institute-1640 Medium (RPMI-1640; AsPC-1 cells) or Dulbecco’s Modified Eagle’s Medium (DMEM; PANC-1, MiaCapa-2, and Capan-1 cells) with GlutaMAX-I, supplemented with 10% (v/v) fetal bovine serum (FBS), 100 U/mL penicillin, and 100 μg/mL streptomycin, and kept in a controlled humidified air containing 5% CO2 at 37 °C. Splitting of cells with a ratio of 1:3 to 1:5 was performed when approaching confluency, using a trypsin/EDTA (0.05%/0.02% w/v) solution.
# For internalization assays, AsPC-1, PANC-1, MiaCapa-2, and Capan-1 cells were seeded in six-well plates (≈1 × 10^6 cells per well) the day before the experiment. Cells were rinsed twice with ice-cold internalization medium (IM; culture medium supplemented by 1% (v/v) FBS), and then fresh IM was added (1.2 mL) at 37 °C, followed by test radiopeptide (250 fmol total peptide in 150 μL IPBS (0.5% w/v BSA–PBS,) 100,000–200,000 cpm). Non-specific internalization was determined by a parallel triplicate series containing 1 μM NT. After incubation at 37 °C, the plates were placed on ice, the medium was collected, and the plates were washed with IPBS (1 mL). Membrane-bound fractions were collected by incubating the cells 2 × 5 min in acid-wash solution (2 × 600 µL; 50 mM glycine buffer pH 2.8, 0.1 M NaCl) at room temperature. […] Sample radioactivity was measured on the gamma counter, and the percentage of specific internalized and membrane-bound fractions were calculated with Microsoft Excel (after subtracting the non-specific from the overall internalized and membrane-bound counts). Results represent the specific mean internalized ± SD of total added radioactivity per well from three experiments performed in triplicate. […]
# [6] = tested on: MiaCapa-2 cells; test: NTS1R-specific cell uptake/internalization in MiaCapa-2 cells; type: cell-based, human; details: 1 h incubation at 37 °C
# Description: as §1, §2
# [7] = tested on: NTS1R; design: method as in PMID 21883013; details: small number of patients ref 30; cited from earlier work
# [8] = mouse, 2 h; cited from earlier work
# [9] = tested on: NTS1R; design: method as in PMID 17594090; details: read-out: receptor affinity (IC50); cited from earlier work
# [10] = mouse, in vivo; cited from earlier work
substance,measurement,setting,value
"Ac–Lys(1,4,7,10-tetraazacyclododecane–1,4,7,10-tetraacetic acid)–Pro–Me–Arg–Arg–Pro–Tyr–Tle–Leu–OH [[^68Ga]Ga–DOTA–NT–20.3]",kidney values,[1],about the same values
"[^68Ga]Ga–NODAGA–Lys(Cy5**)–AEEAc–[Me–Arg^8,Tle^12]NT(7−13)",kidney values,[1],20 % IA/g
[^99mTc]Tc–[N4–Gly^7]NT(7–13) [[^99mTc]Tc–DT1],specific cell binding,[2],10.1 ± 2.3%
same,specific cell uptake,[3],0.4% ± 0.1%
same,"I, internalized fraction, specific","[4]; PANC-1, 1 h incubation, of total-added activity",7.30±2.41
same,specific cell uptake,"[4]; PANC-1 cells, 1 h incubation at 37 °C, NTS1R-specific",8.1% ± 2.8%
same,"I, internalized fraction, specific","[5]; AsPC-1, 1 h incubation, of total-added activity",14.11±2.28
same,specific cell uptake,[5],15.2% ± 2.6%
same,specific cell uptake,[6],2.7% ± 0.3%
"[^99mTc]Tc–[N4–βAla^7,Dab^9,Tle]NT(7–13) [[^99mTc]Tc–DT6]",NTS1R targeting of tumor lesions in patients,[7],poor NTS1R targeting of tumor lesions
same,specific cell binding,[2],1.0 ± 0.4%
same,"stability in mice plasma, intact",[8],> 90%
same,IC50,[9],0.08 ± 0.02 nM
"[^99mTc]Tc–[N4–βAla^7,Dab^9]NT(7–13) [[^99mTc]Tc–DT5]",specific cell uptake,[5],8.4% ± 0.8%
same,renal values in mice,[10],high renal values
